Reference: patent US6127420A, “L-N^5 -(1-imino-3-alkenyl) ornithine and related compounds and use thereof” (priority 1998, dated 2000)
Where two headings read alike, the source gives them in different places.

Key:
eNOS [1] = target: T1, eNOS (Bos taurus, UniProt P29473); assay: biochemical
iNOS [2] = target: T2, iNOS (Mus musculus, UniProt P29477); assay: biochemical
nNOS [3] = target: T3, nNOS (Rattus norvegicus, UniProt P29476); assay: Time-dependent inactivation of nNOS (residual activity, oxyhemoglobin oxidation); type: biochemical; design: made in house; host or cells: stably transfected kidney 293 cells; conditions: 25° C.; for inactivation of nNOS relative to 2.0 μM L-NMA (FIG. 2): 0.5 μM L-VNIO vs 2.0 μM L-NMA; for inactivation of nNOS (in words, FIG. 2): under the conditions examined
Experimental: Nitric oxide-mediated oxidation of oxyhemoglobin was monitored at 401 nm (ε=0.038 μM^-1); the reference cuvette contained a similar mixture without enzyme. Rates were measured and used to calculate the residual activity. The results are shown in FIG. 1 where for ln A/Ao in the legend for the vertical axis, A is the residual activity of NOS at the time indicated and Ao is the activity of NOS at time zero (i.e., initial activity).
Determinations were carried out as described in Example XI. The results are shown in FIG. 2 where in (A/Ao) means the same as in Example XI.
Testing was carried out to compare inactivation by L-VNIO of the nNOS, eNOS and iNOS isoforms. Determinations were carried out as set forth in Example XI except that the reaction mixtures for iNOS omitted CaCl2 and calmodulin.

eNOS [4] = target: T1, eNOS; assay: Time-dependent inactivation of eNOS (residual activity, oxyhemoglobin oxidation); type: biochemical, bovine; conditions: 25° C.
iNOS [5] = target: T2, iNOS; assay: Time-dependent inactivation of iNOS (residual activity, oxyhemoglobin oxidation; CaCl2 and calmodulin omitted); type: biochemical; conditions: up to 100 μM L-VNIO, 25° C.
[6] = test system: female Sprague-Dawley CFY rats; assay: Stroke volume after carotid artery ligation in rats; type: in vivo, rat; conditions: 25 mg/kg i.v. bolus 30 minutes after occlusion; histology 24 hours after artery occlusion
Experimental: Both carotid arteries are ligated in two groups of female Sprague-Dawley CFY rats. After 10 minutes, ligations are released and flow is again allowed.
In the case of one group, L-VNIO (25 mg/kg) is administered by bolus injection through a venous catheter 30 minutes after occlusion of the arteries. In the case of the other group, no therapeutic agent is administered.

[7] = Migraine headache treatment of a patient with L-VNIO tablets; type: in vivo, human
Experimental: A person with a history of migraine headaches is provided with tablets containing 500 mg of L-VNIO. They are instructed to take one tablet at the first sign of migraine headache development and to take a second table 60 minutes later if the headache continues to develop. When a right-sided migraine headache begins, they take one tablet as instructed, and headache pain begins to decrease within 15 minutes and is absent within 45 minutes. […] The women therefore takes a second table as instructed and headache pain is absent within 30 minutes of taking the second tablet.

nNOS [8] = target: T3, nNOS; conditions: for nNOS Ki/Km: Ki divided by Km for L-arginine; for selectivity for nNOS (in words): vs eNOS (and iNOS for L-VNIO), on a Ki/Km basis
eNOS [9] = target: T1, eNOS; conditions: for eNOS Ki/Km: Ki divided by Km for L-arginine
iNOS [10] = target: T2, iNOS; conditions: for iNOS Ki/Km: Ki divided by Km for L-arginine
nNOS [11] = target: T3, nNOS; assay: biochemical
[12] = first migraine, one 500 mg tablet

T2 sequence (P29477 whole entry): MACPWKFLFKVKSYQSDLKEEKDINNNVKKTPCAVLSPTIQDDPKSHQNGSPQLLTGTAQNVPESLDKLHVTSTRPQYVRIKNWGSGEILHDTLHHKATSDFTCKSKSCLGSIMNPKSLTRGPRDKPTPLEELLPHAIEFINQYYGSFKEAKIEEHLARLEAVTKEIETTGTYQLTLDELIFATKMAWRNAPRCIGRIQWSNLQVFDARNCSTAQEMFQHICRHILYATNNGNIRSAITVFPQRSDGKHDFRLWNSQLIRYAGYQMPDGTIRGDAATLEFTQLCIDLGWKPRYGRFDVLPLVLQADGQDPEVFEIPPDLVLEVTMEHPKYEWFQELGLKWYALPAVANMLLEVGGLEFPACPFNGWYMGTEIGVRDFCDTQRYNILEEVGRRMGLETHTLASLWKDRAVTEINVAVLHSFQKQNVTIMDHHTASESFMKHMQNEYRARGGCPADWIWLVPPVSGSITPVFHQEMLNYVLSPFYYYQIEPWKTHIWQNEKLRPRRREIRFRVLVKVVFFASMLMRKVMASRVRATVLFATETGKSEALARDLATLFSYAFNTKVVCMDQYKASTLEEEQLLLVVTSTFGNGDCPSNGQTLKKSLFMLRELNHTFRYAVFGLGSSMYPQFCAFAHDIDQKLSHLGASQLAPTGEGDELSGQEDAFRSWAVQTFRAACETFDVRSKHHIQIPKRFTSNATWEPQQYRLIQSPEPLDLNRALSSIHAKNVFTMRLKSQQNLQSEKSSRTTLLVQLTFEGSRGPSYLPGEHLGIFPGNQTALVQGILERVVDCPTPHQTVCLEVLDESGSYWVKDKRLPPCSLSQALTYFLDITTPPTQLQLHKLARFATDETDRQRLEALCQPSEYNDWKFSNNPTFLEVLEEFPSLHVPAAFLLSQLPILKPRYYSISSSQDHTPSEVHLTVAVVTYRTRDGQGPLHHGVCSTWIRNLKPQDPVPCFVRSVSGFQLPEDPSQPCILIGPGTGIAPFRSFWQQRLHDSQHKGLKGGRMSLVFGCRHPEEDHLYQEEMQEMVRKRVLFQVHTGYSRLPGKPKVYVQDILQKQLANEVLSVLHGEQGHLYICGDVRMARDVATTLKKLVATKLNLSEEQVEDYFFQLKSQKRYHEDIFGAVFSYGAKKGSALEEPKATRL
T1 sequence (P29473 2-1205): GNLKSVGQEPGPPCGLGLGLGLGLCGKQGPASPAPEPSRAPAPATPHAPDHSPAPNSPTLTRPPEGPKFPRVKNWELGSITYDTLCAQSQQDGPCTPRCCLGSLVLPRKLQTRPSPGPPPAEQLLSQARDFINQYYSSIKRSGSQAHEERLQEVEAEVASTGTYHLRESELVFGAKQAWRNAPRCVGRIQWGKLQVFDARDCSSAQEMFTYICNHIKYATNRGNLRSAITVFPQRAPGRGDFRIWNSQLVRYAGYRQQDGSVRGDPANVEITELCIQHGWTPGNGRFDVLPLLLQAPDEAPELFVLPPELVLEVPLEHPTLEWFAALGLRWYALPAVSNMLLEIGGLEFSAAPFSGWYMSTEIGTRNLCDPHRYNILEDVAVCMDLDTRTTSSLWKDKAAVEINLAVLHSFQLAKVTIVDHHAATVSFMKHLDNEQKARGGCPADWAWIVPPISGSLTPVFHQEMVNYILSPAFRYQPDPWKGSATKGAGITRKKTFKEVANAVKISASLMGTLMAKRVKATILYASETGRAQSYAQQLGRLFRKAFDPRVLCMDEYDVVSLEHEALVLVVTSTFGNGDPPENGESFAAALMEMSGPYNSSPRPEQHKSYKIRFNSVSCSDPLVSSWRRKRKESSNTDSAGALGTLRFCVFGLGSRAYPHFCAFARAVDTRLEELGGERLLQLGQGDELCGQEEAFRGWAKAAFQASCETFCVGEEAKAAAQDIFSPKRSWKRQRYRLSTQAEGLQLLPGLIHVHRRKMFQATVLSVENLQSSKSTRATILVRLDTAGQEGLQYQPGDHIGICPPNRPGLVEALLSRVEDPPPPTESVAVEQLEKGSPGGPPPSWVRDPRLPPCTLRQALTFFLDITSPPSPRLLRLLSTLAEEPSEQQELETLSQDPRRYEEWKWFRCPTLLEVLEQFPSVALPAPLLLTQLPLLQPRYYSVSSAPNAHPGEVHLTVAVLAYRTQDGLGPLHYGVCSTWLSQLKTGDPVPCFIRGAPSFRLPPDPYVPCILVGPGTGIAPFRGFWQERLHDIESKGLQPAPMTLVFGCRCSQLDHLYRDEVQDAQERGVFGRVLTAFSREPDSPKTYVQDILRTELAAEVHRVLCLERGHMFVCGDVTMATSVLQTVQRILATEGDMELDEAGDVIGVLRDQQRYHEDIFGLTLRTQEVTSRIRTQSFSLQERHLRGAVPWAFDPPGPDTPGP
T3 sequence (P29476 whole entry): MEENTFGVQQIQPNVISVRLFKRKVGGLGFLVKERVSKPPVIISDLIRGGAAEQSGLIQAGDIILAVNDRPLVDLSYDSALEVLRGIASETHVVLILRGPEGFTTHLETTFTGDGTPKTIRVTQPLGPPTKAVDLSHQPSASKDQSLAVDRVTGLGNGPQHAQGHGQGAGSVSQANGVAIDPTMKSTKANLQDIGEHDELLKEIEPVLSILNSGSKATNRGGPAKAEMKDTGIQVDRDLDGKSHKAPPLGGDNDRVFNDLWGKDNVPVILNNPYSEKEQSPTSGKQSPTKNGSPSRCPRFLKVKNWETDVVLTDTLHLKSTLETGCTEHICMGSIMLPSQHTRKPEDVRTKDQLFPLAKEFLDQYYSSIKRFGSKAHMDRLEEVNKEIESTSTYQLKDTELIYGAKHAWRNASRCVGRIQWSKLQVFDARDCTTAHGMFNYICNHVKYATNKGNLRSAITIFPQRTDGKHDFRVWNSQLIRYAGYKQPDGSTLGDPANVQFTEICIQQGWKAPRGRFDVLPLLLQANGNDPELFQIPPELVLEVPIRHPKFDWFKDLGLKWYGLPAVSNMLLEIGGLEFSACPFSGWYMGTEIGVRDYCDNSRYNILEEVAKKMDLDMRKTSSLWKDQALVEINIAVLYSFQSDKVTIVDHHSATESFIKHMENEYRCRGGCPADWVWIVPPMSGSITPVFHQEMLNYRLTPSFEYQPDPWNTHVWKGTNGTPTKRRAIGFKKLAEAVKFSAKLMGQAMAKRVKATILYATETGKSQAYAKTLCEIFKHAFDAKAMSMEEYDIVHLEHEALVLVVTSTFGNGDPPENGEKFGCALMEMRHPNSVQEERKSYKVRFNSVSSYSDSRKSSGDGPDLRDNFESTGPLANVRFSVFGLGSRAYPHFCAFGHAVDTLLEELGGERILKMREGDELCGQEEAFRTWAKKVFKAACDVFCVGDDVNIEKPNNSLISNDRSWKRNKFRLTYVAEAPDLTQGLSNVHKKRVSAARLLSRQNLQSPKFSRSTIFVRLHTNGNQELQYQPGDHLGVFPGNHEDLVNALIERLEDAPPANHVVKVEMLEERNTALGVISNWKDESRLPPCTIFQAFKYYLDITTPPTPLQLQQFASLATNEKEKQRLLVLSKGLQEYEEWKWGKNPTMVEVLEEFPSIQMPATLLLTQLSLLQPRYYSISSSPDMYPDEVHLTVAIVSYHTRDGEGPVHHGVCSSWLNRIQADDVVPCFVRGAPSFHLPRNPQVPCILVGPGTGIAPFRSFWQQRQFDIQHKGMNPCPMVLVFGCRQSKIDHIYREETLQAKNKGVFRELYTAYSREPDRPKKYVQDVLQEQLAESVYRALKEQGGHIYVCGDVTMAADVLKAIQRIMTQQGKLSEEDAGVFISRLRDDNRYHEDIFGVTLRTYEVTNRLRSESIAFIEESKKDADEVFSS

Compound | Ki (eNOS [1]) [µM] | Ki (iNOS [2]) [µM] | nNOS Ki/Km (nNOS [8]) | eNOS Ki/Km (eNOS [9]) | iNOS Ki/Km (iNOS [10]) | inactivation of nNOS (in words, FIG. 2) (nNOS [3]) | inactivation of nNOS relative to 2.0 μM L-NMA (FIG. 2) (nNOS [3]) | selectivity for nNOS (in words) (nNOS [8]) | further results
CC(=N)NCCC[C@H](N)C(=O)O [L-NIO] | 3.9 | 3.9 | – | – | – | – | – | – | –
CNC(=N)NCCC[C@H](N)C(=O)O [L-NMA, N^ω -methyl-L-arginine, reference compound] | – | – | – | – | – | – | comparable | – | –
C=CCC(=N)NCCC[C@H](N)C(=O)O [L-VNIO, N^5-(1-imino-3-butenyl)-L-ornithine] | 12 | – | 0.07 | 3.33 | 4.80 | – | comparable with that seen with 2.0 μM L-NMA | selective inhibitor of nNOS | inactivation of eNOS (FIG. 3) (eNOS [4]; 10 μM L-VNIO): relatively weak inactivator of eNOS; rate of inactivation of eNOS compared with nNOS (FIG. 3) (eNOS [4]; 20-fold higher concentration of L-VNIO: 10 μM eNOS vs 0.5 μM nNOS): does not match that seen with nNOS; inactivation of iNOS (FIG. 3) (iNOS [5]): does not inactivate iNOS; stroke volume compared to group receiving no treatment [6]: significant reduction in stroke volume; time until headache pain begins to decrease [7, 12]: ≤ 15 min; time until headache pain is absent [7, 12]: ≤ 45 min; pain relief by the first tablet, following day ([7]; following day, first 500 mg tablet): pain is not fully alleviated by the first tablet; time until headache pain is absent after the second tablet ([7]; following day, second 500 mg tablet 60 minutes after first): ≤ 30 min; inhibition of nNOS (in words) (nNOS [8]; conclusion from Table I): potent inhibitor of nNOS; Ki (nNOS [8]; read-out: nNOS Ki, rat nNOS, 25° C., pH 7.4, initial rate conditions, duplicates agreed within ±5%): 0.1 µM; inhibition of eNOS (in words) (eNOS [9]; conclusion from Table I): poor inhibitor of eNOS; inhibition of iNOS (in words) (iNOS [10]; conclusion from Table I): poor inhibitor of eNOS and INOS; Ki (iNOS [10]; read-out: iNOS Ki, mouse iNOS, 25° C., pH 7.4, initial rate conditions, duplicates agreed within ±5%): 60 µM; inactivation of nNOS relative to 10 μM L-NIO (FIG. 2) (nNOS [3]; 0.5 μM L-VNIO vs 10 μM L-NIO): greater than that seen with 10 μM L-NIO; inactivation of nNOS (FIG. 3) (nNOS [3]; 0.5 μM L-VNIO): strong inactivator of nNOS; inactivation of nNOS (FIG. 1) (nNOS [3]; L-VNIO 0.1-0.8 μM, D-VNIO 100 μM): caused a first-order inactivation of nNOS

Continued, in another order:

Ki (eNOS [1]) [µM] | Ki (iNOS [2]) [µM] | nNOS Ki/Km (nNOS [8]) | eNOS Ki/Km (eNOS [9]) | iNOS Ki/Km (iNOS [10]) | inactivation of nNOS (in words, FIG. 2) (nNOS [3]) | Compound | inactivation of nNOS relative to 2.0 μM L-NMA (FIG. 2) (nNOS [3]) | selectivity for nNOS (in words) (nNOS [8]) | further results
18 | 12 | 3.79 | 5.00 | 0.96 | does not inactivate nNOS | CCCC(=N)NCCC[C@H](N)C(=O)O [ethyl-L-NIO, reference compound] | – | do not show biologically significant selectivity for nNOS over eNOS | selectivity for iNOS over nNOS and eNOS (iNOS [10]; on a Ki/Km basis): 3 to 5 fold; Ki (nNOS [11]): 5.3 µM
10 | 9.5 | – | – | – | much weaker inactivator of nNOS | CCC(=N)NCCC[C@H](N)C(=O)O [methyl-L-NIO] | – | – | –
